According to paper PMC5615938 (Toxicology Reports, 2016):
Where two headings read alike, the source gives them in different places.

Assays:
[1] = molecular target: Silver catfish (Synodontis eupterus) major hepatic glutathione transferase (seGST); format: biochemical; conditions: pH 6.5, 1 mM CDNB and 1 mM GSH
[2] = molecular target: Silver catfish (Synodontis eupterus) major hepatic glutathione transferase (seGST); experiment: Product and dead-end inhibition studies of seGST; format: biochemical
[3] = tested on: Silver catfish (Synodontis eupterus) major hepatic glutathione transferase (seGST); experiment: seGST steady state kinetics, GSH-CDNB conjugation; format: biochemical; conditions: for Km: 0.1-1.2 mM GSH and CDNB, one substrate varied, the other kept constant
[4] = tested on: GST; conditions: cited from earlier work
[5] = tested on: Silver catfish (Synodontis eupterus) major hepatic glutathione transferase (seGST); experiment: Viscosity dependence of seGST kcat/KM; format: biochemical; conditions: viscosogen added, 25 °C

## 1-methyl glutathione [1−methylglutathione]
[1]
  IC50: 16.6 ± 1.58 µM
[2]; read-out: Kis (CDNB varied), CDNB varied
  Ki: 0.16 µM
[2]; read-out: Kis (GSH varied), CDNB fixed at 1.0 mM, GSH 0.1-1.0 mM
  Ki: 0.09 µM

## O=C1OC(c2ccc(O)c(S(=O)(=O)O)c2)(c2ccc(O)c(S(=O)(=O)O)c2)c2c(Br)c(Br)c(Br)c(Br)c21 [Bromosulphosptlein, bromosulfophthalein]
[1]
  IC50: 47.4 ± 5.67 µM

## O=[N+]([O-])c1ccc(Cl)c([N+](=O)[O-])c1 [CDNB, 1-chloro 2,4-dintrobenzene]
[3]; 25 °C
  Km: 690 ± 170 µM
[3]; from secondary plots, GSH-CDNB
  KIB (E.CDNB + GSH ⇌ E.CDNB.GSH): 0.48 ± 0.02

## Nc1c(S(=O)(=O)O)cc(Nc2ccc(Nc3nc(Cl)nc(Nc4ccccc4S(=O)(=O)O)n3)c(S(=O)(=O)O)c2)c2c1C(=O)c1ccccc1C2=O [Cibracron Blue]
[1]
  IC50: 0.01 ± 0.001 µM

## C=C(CC)C(=O)c1ccc(OCC(=O)O)c(Cl)c1Cl [Ethacrynic acid]
[1]
  IC50: 21.3 ± 3.22 µM

## N[C@@H](CCC(=O)N[C@@H](CS)C(=O)NCC(=O)O)C(=O)O [GSH, Reduced glutathione]
[4]; before lowering by GST
  pKa of GSH: 9.0
[4]; bound to GST
  pKa of the bound GSH: about 6.5
[3]; 25 °C
  Km: 530 ± 50 µM
[3]; 25 °C, GSH-CDNB conjugation
  kcat[GSH]: 44.62 ± 1.124 s⁻¹
[3]; from secondary plots, GSH-CDNB
  KA (E.GSH + CDNB ⇌ E.GSH.CDNB): 0.64 ± 0.04
  KIA (E.GSH): 0.14 ± 0.01

## C=CC1=C(C)c2cc3[n-]c(cc4[n-]c(cc5nc(cc1n2)C(C)=C5C=C)c(C)c4CCC(=O)O)c(CCC(=O)O)c3C.[Fe+2] [Hematin]
[1]
  IC50: 5 ± 0.1 µM

## [Cl-].[K+] [KCl]
[2]; with respect to GSH and with respect to CDNB
  inhibition pattern in double reciprocal plots: non-competitive inhibition

## [Cl][Sn]([c]1ccccc1)([c]1ccccc1)[c]1ccccc1 [Triphenytin chloride, triphenyltin chloride]
[1]
  IC50: 0.05 ± 0.005 µM

## OCC(O)CO [glycerol, Glycerol]
[5]
  catalytic efficiency indicated by the exponential value: 23%
[5]; 0.1 M potassium phosphate buffer pH 6.5
  exponential value of (kcat/KM)^0/(kcat/KM) versus relative viscosity: 0.227

## CCCCCCSC[C@H](NC(=O)CC[C@H](N)C(=O)O)C(=O)NCC(=O)O [s-hexylglutathione]
[1]
  IC50: 17.6 ± 1.3 µM
